Reference: PubChem BioAssay AID1919010 (Molecular Pharmacology Branch, DTP, NCI, 2023)

Tested on: Hs578T complex spheroid growth, percent test/control
Assay: Anticancer human tumor Hs578T cell line growth inhibition [AhR];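 note: luminescent viability signal as a proxy for spheroid growth; spheroids exposed to agents for one week after three days of growth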
Details: for IC50: curve of first compound; for viability, T/C: stronger effect = lower value
In short: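 Complex tumor spheroids co-cultured with HUVEC and human MSC stroma; AhR antagonists tested in combination with standard-of-care and investigational agents. Top concentration at or near clinical Cmax (else 10 microM), half-log dilutions; growth expressed as percent test/control.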

[1] = second compound 0.1 µM, first compound 0.000949 µM
[2] = second compound 0.1 µM, first compound 0.003 µM
[3] = second compound 0.1 µM, first compound 0.00949 µM
[4] = second compound 0.1 µM, first compound 0.03 µM
[5] = second compound 0.1 µM, first compound 0.0949 µM
[6] = second compound 0.1 µM, first compound 0.3 µM
[7] = second compound 0.316 µM, first compound 0.000949 µM
[8] = second compound 0.316 µM, first compound 0.003 µM
[9] = second compound 0.316 µM, first compound 0.00949 µM
[10] = second compound 0.316 µM, first compound 0.03 µM
[11] = second compound 0.316 µM, first compound 0.0949 µM
[12] = second compound 0.316 µM, first compound 0.3 µM
[13] = second compound 1 µM, first compound 0.000949 µM
[14] = second compound 1 µM, first compound 0.003 µM
[15] = second compound 1 µM, first compound 0.00949 µM
[16] = second compound 1 µM, first compound 0.03 µM
[17] = second compound 1 µM, first compound 0.0949 µM
[18] = second compound 1 µM, first compound 0.3 µM
[19] = second compound 3.16 µM, first compound 0.000949 µM
[20] = second compound 3.16 µM, first compound 0.003 µM
[21] = second compound 3.16 µM, first compound 0.00949 µM
[22] = second compound 3.16 µM, first compound 0.03 µM
[23] = second compound 3.16 µM, first compound 0.0949 µM
[24] = second compound 3.16 µM, first compound 0.3 µM
[25] = second compound 10 µM, first compound 0.000949 µM
[26] = second compound 10 µM, first compound 0.003 µM
[27] = second compound 10 µM, first compound 0.00949 µM
[28] = second compound 10 µM, first compound 0.03 µM
[29] = second compound 10 µM, first compound 0.0949 µM
[30] = second compound 10 µM, first compound 0.3 µM
[31] = second compound 0.1 µM, first compound 0.0316 µM
[32] = second compound 0.1 µM, first compound 0.1 µM
[33] = second compound 0.1 µM, first compound 0.316 µM
[34] = second compound 0.1 µM, first compound 1 µM
[35] = second compound 0.1 µM, first compound 3.16 µM
[36] = second compound 0.1 µM, first compound 10 µM
[37] = second compound 0.316 µM, first compound 0.0316 µM
[38] = second compound 0.316 µM, first compound 0.1 µM
[39] = second compound 0.316 µM, first compound 0.316 µM
[40] = second compound 0.316 µM, first compound 1 µM
[41] = second compound 0.316 µM, first compound 3.16 µM
[42] = second compound 0.316 µM, first compound 10 µM
[43] = second compound 1 µM, first compound 0.0316 µM
[44] = second compound 1 µM, first compound 0.1 µM
[45] = second compound 1 µM, first compound 0.316 µM
[46] = second compound 1 µM, first compound 1 µM
[47] = second compound 1 µM, first compound 3.16 µM
[48] = second compound 1 µM, first compound 10 µM
[49] = second compound 3.16 µM, first compound 0.0316 µM
[50] = second compound 3.16 µM, first compound 0.1 µM
[51] = second compound 3.16 µM, first compound 0.316 µM
[52] = second compound 3.16 µM, first compound 1 µM
[53] = second compound 3.16 µM, first compound 3.16 µM
[54] = second compound 3.16 µM, first compound 10 µM
[55] = second compound 10 µM, first compound 0.0316 µM
[56] = second compound 10 µM, first compound 0.1 µM
[57] = second compound 10 µM, first compound 0.316 µM
[58] = second compound 10 µM, first compound 1 µM
[59] = second compound 10 µM, first compound 3.16 µM
[60] = second compound 10 µM, first compound 10 µM

CC(C)CC(NC(=O)C(Cc1ccccc1)NC(=O)c1cnccn1)B(O)O (stereo not given) + Cc1ccccc1N=Nc1ccc(NC(=O)c2ccnn2C)c(C)c1
IC50 (second compound 0.1 µM): 5.01 nM
IC50 (second compound 0.316 µM): 4.98 nM
IC50 (second compound 1 µM): 5.47 nM
IC50 (second compound 3.16 µM): 4.53 nM
IC50 (second compound 10 µM): 3.14 nM
viability, T/C [1]: 107%
viability, T/C [2]: 80.8%
viability, T/C [3]: 11.7%
viability, T/C [4]: 0.3%
viability, T/C [5]: 0.81%
viability, T/C [6]: 0.36%
viability, T/C [7]: 94.6%
viability, T/C [8]: 78.1%
viability, T/C [9]: 14.1%
viability, T/C [10]: 0.31%
viability, T/C [11]: 0.28%
viability, T/C [12]: 0.33%
viability, T/C [13]: 98.2%
viability, T/C [14]: 86.1%
viability, T/C [15]: 16.9%
viability, T/C [16]: 0.65%
viability, T/C [17]: 0.44%
viability, T/C [18]: 1.31%
viability, T/C [19]: 88.6%
viability, T/C [20]: 68.7%
viability, T/C [21]: 16.6%
viability, T/C [22]: 0.34%
viability, T/C [23]: 0.39%
viability, T/C [24]: 0.32%
viability, T/C [25]: 62.1%
viability, T/C [26]: 51.2%
viability, T/C [27]: 16.6%
viability, T/C [28]: 0.45%
viability, T/C [29]: 0.83%
viability, T/C [30]: 0.53%

CCc1c2c(nc3ccc(O)cc13)-c1cc3c(c(=O)n1C2)COC(=O)[C@]3(O)CC + Cc1ccccc1N=Nc1ccc(NC(=O)c2ccnn2C)c(C)c1
IC50 (second compound 0.1 µM): 84.6 nM
IC50 (second compound 0.316 µM): 130 nM
IC50 (second compound 1 µM): 68.7 nM
IC50 (second compound 3.16 µM): 39.1 nM
IC50 (second compound 10 µM): 8.73 nM
viability, T/C [1]: 77.4%
viability, T/C [2]: 76.4%
viability, T/C [3]: 73.1%
viability, T/C [4]: 57.9%
viability, T/C [5]: 50.8%
viability, T/C [6]: 31.5%
viability, T/C [7]: 91%
viability, T/C [8]: 78.4%
viability, T/C [9]: 72.1%
viability, T/C [10]: 65.4%
viability, T/C [11]: 53%
viability, T/C [12]: 41.5%
viability, T/C [13]: 72.8%
viability, T/C [14]: 69.4%
viability, T/C [15]: 69.1%
viability, T/C [16]: 60.9%
viability, T/C [17]: 45.7%
viability, T/C [18]: 36.7%
viability, T/C [19]: 69.1%
viability, T/C [20]: 73.8%
viability, T/C [21]: 62.5%
viability, T/C [22]: 52%
viability, T/C [23]: 41.8%
viability, T/C [24]: 31.9%
viability, T/C [25]: 60.4%
viability, T/C [26]: 51.1%
viability, T/C [27]: 50.7%
viability, T/C [28]: 46.3%
viability, T/C [29]: 34.7%
viability, T/C [30]: 30.3%

Nc1ccccc1NC(=O)c1ccc(CNC(=O)OCc2cccnc2)cc1 + Cc1ccccc1N=Nc1ccc(NC(=O)c2ccnn2C)c(C)c1
IC50 (second compound 0.1 µM): 1320 nM
IC50 (second compound 0.316 µM): 1300 nM
IC50 (second compound 1 µM): 1480 nM
IC50 (second compound 3.16 µM): 1480 nM
IC50 (second compound 10 µM): 1320 nM
viability, T/C [31]: 100%
viability, T/C [32]: 90.9%
viability, T/C [33]: 85.2%
viability, T/C [34]: 62.2%
viability, T/C [35]: 16.1%
viability, T/C [36]: 0.74%
viability, T/C [37]: 100%
viability, T/C [38]: 86.2%
viability, T/C [39]: 82.5%
viability, T/C [40]: 62.1%
viability, T/C [41]: 16.4%
viability, T/C [42]: 1.06%
viability, T/C [43]: 97.6%
viability, T/C [44]: 95.2%
viability, T/C [45]: 95.5%
viability, T/C [46]: 66.4%
viability, T/C [47]: 17.6%
viability, T/C [48]: 1.6%
viability, T/C [49]: 89.5%
viability, T/C [50]: 79.6%
viability, T/C [51]: 93.3%
viability, T/C [52]: 66.2%
viability, T/C [53]: 16.9%
viability, T/C [54]: 1.24%
viability, T/C [55]: 61%
viability, T/C [56]: 62.5%
viability, T/C [57]: 64.9%
viability, T/C [58]: 59.5%
viability, T/C [59]: 19.6%
viability, T/C [60]: 1.69%

Nc1ccn(C2OC(CO)C(O)C2(F)F)c(=O)n1 (stereo not given) + Cc1ccccc1N=Nc1ccc(NC(=O)c2ccnn2C)c(C)c1
IC50 (second compound 0.1 µM): 4310 nM
IC50 (second compound 0.316 µM): 3740 nM
IC50 (second compound 1 µM): > 10000 nM
IC50 (second compound 3.16 µM): < 31.6 nM
IC50 (second compound 10 µM): < 31.6 nM
viability, T/C [31]: 55.6%
viability, T/C [32]: 48.1%
viability, T/C [33]: 52.5%
viability, T/C [34]: 49.2%
viability, T/C [35]: 54%
viability, T/C [36]: 47.9%
viability, T/C [37]: 54%
viability, T/C [38]: 44.9%
viability, T/C [39]: 53.9%
viability, T/C [40]: 49.8%
viability, T/C [41]: 49.9%
viability, T/C [42]: 50%
viability, T/C [43]: 61%
viability, T/C [44]: 52%
viability, T/C [45]: 49.1%
viability, T/C [46]: 46.9%
viability, T/C [47]: 48.1%
viability, T/C [48]: 56.8%
viability, T/C [49]: 48.7%
viability, T/C [50]: 47.3%
viability, T/C [51]: 47.4%
viability, T/C [52]: 47.9%
viability, T/C [53]: 45.9%
viability, T/C [54]: 44.6%
viability, T/C [55]: 45.1%
viability, T/C [56]: 46.1%
viability, T/C [57]: 35.6%
viability, T/C [58]: 36.2%
viability, T/C [59]: 37%
viability, T/C [60]: 41.4%

O=C(C=Cc1cccc(S(=O)(=O)Nc2ccccc2)c1)NO + Cc1ccccc1N=Nc1ccc(NC(=O)c2ccnn2C)c(C)c1
IC50 (second compound 0.1 µM): 1850 nM
IC50 (second compound 0.316 µM): 1780 nM
IC50 (second compound 1 µM): 1860 nM
IC50 (second compound 3.16 µM): 1770 nM
IC50 (second compound 10 µM): 1500 nM
viability, T/C [31]: 99%
viability, T/C [32]: 107%
viability, T/C [33]: 94%
viability, T/C [34]: 77.5%
viability, T/C [35]: 26.2%
viability, T/C [36]: 0.74%
viability, T/C [37]: 105%
viability, T/C [38]: 108%
viability, T/C [39]: 94%
viability, T/C [40]: 74%
viability, T/C [41]: 26.9%
viability, T/C [42]: 0.66%
viability, T/C [43]: 109%
viability, T/C [44]: 104%
viability, T/C [45]: 96.5%
viability, T/C [46]: 77.6%
viability, T/C [47]: 26.9%
viability, T/C [48]: 0.82%
viability, T/C [49]: 93.5%
viability, T/C [50]: 87.2%
viability, T/C [51]: 98.5%
viability, T/C [52]: 71.9%
viability, T/C [53]: 26.3%
viability, T/C [54]: 1.13%
viability, T/C [55]: 64.2%
viability, T/C [56]: 67.2%
viability, T/C [57]: 64%
viability, T/C [58]: 63.2%
viability, T/C [59]: 25.9%
viability, T/C [60]: 1.32%

O=C(c1cc(Cc2n[nH]c(=O)c3ccccc23)ccc1F)N1CCN(C(=O)C2CC2)CC1 + Cc1ccccc1N=Nc1ccc(NC(=O)c2ccnn2C)c(C)c1
IC50 (second compound 0.1 µM): > 10000 nM
IC50 (second compound 0.316 µM): > 10000 nM
IC50 (second compound 1 µM): > 10000 nM
IC50 (second compound 3.16 µM): > 10000 nM
IC50 (second compound 10 µM): > 10000 nM
viability, T/C [31]: 96.8%
viability, T/C [32]: 104%
viability, T/C [33]: 109%
viability, T/C [34]: 101%
viability, T/C [35]: 96.9%
viability, T/C [36]: 80.9%
viability, T/C [37]: 101%
viability, T/C [38]: 107%
viability, T/C [39]: 100%
viability, T/C [40]: 101%
viability, T/C [41]: 88.2%
viability, T/C [42]: 72.1%
viability, T/C [43]: 104%
viability, T/C [44]: 109%
viability, T/C [45]: 104%
viability, T/C [46]: 99.6%
viability, T/C [47]: 104%
viability, T/C [48]: 81.3%
viability, T/C [49]: 96.9%
viability, T/C [50]: 97.7%
viability, T/C [51]: 94.9%
viability, T/C [52]: 96.8%
viability, T/C [53]: 85.9%
viability, T/C [54]: 72.3%
viability, T/C [55]: 66.8%
viability, T/C [56]: 70.7%
viability, T/C [57]: 76.5%
viability, T/C [58]: 69.3%
viability, T/C [59]: 67.6%
viability, T/C [60]: 63.5%
